Test results taken from PMC9146215, “Design of D-Amino Acids SARS-CoV-2 Main Protease Inhibitors Using the Cationic Peptide from Rattlesnake Venom as a Scaffold” (Pharmaceuticals, 2022).
Positions of bridges follow the written chain, without caps; N, C: chain ends. Non-standard residues stand in square brackets, D forms with d. Residues, ends and D or L forms follow the SMILES beside them. No end group written: not given here.

Assays:
SARS-CoV-2 3CL^pro [1] = biological target: T1, SARS-CoV-2 3CL^pro (Severe acute respiratory syndrome coronavirus 2, UniProt P0DTD1); experiment: SARS-CoV-2 3CLpro fluorogenic (DABCYL/EDANS substrate) inhibition assay; format: biochemical; conditions: 0.5 µM 3CLpro, n = 3; for IC50: 30 min pre-incubation with inhibitor at RT, 50 µM substrate, 37 °C, pH 7.2, 1 mM TCEP, mean ± SD, read-out: IC50 [µM] ± STD
T1 construct: SARS-CoV-2 3CL^pro (Uniprot entry: P0DTD1, virus strain: hCoV-19/Wuhan/WIV04/2019) was cloned, expressed, and purified; GST (cleaved yes); made in house; host or cells: E. coli Lemo21 (DE3)
Protocol: The SARS-CoV-2 3CL^pro activity assay was performed using DABCYL-KTSAVLQ/SGFRKME-EDANS (Bachem, Switzerland) as substrate.
SARS-CoV-2 3CL^pro activity assay was performed using a fluorogenic substrate DABCYL-KTSAVLQ↓SGFRKME-EDANS (Bachem, Bubendorf, Switzerland) in a buffer containing 20 mM Tris pH 7.2, 200 mM NaCl, 1 mM EDTA, and 1 mM TCEP [31, 32, 33, 34]. The reaction mixture was pipetted in a Corning 96-well plate (Merck, Darmstadt, Germany) containing 0.5 µM protein. The assay was initiated with the addition of the substrate at a final concentration of 50 µM. The fluorescence intensities were measured at 60 s intervals over 30 min using an Infinite 200 PRO plate reader (Tecan, Männedorf, Switzerland), and the temperature was set to 37 °C. The excitation and emission wavelengths were 360 and 460 nm, respectively.
The activity assay described above investigated the inhibition of SARS-CoV-2 3CL^pro activity by Cro, L- and D-CDPs. 30 µM of the peptides was used for a preliminary screening test.
For the final inhibition assays, 0.5 µM of the protein was mixed with 0–300 µM Cro, 0–150 µM L-CDPs, and 0–125 µM D-CDPs and subsequently incubated for 30 min at RT. An additional experiment was conducted where the substrate and the inhibitor were added simultaneously (without incubation). When the substrate with a final concentration of 50 µM was added to the mixture, the fluorescence intensities were measured at 60 s intervals over 30 min using an Infinite 200 PRO plate reader (Tecan, Männedorf, Switzerland). The temperature was set to 37 °C, and the excitation and emission wavelengths were 360 and 460 nm, respectively. Inhibition assays were performed in triplicate.
The IC50 value was calculated by plotting the initial velocity against various concentrations of the combined molecules using a dose-response curve in GraphPad Prism5 software […]. Data are presented as mean ± SD.

[2] = test system: all cell types investigated; conditions: rapid translocation efficiency; cited from earlier work
From the text: These properties were mainly determined by the overall positive net surface charge distribution of crotamine. Characterised as a novel cell-penetrating polypeptide (CPP) nanocarrier, Cro has biotechnological ...

SARS-CoV-2 3CL^pro [3] = biological target: T1, SARS-CoV-2 3CL^pro; experiment: Determination of inhibition mode (Lineweaver-Burk plot); format: biochemical; conditions: 0.5 µM 3CLpro, 30 min incubation at RT, triplicate
Protocol: The inhibition mode was determined using different final concentrations of the inhibitors and substrate. […] The remaining L-peptides were not tested.
Briefly, 0.5 µM SARS-CoV-2 3CL^pro was incubated with the inhibitor, in various concentrations, for 30 min at RT. Subsequently, the reaction was initiated by adding the corresponding concentration series of the substrate. The data were analysed using a Lineweaver-Burk plot; therefore, the reciprocal of velocity (1/V) vs the reciprocal of the substrate concentration (1/[S]) was compared. All measurements were performed in triplicate, and data are presented as mean ± SD.

[4] = L- and D-peptide stability against pepsin hydrolysis (simulated gastric fluid); format: in vitro ADME; conditions: simulated gastric fluid with pepsin (3.2 mg/mL); simulated gastric fluid: 2 mg/mL NaCl, 3.2 mg/mL pepsin, 80 mM HCl, pH 1.0; 37 °C, 500 rpm; after 8 h; RP-HPLC C18, 214 nm; read-out: Peptide amount remaining after pepsin incubation
Protocol: (§1) As protein hydrolysis is initiated by pepsin, we have performed a hydrolysis experiment simulating gastric fluid for both selected L- and D-peptides. After incubation over 4 and 8 h, the sample was analysed using RP-HPLC (Supplementary Figure S8).
(§2) The preparation of the pepsin solution was performed as described before. The experiment solution contains 2 mg/mL NaCl, 3.2 mg/mL pepsin, and 80 mM HCL at a pH 1.0. This solution simulated gastric fluid. […] Samples were taken after 0 h, 4 h, and 8 h. The samples were analysed by reversed-phase high-performance liquid chromatography (RP-HPLC). The RP-HPLC system (Agilent Technologies, Santa Clara, CA, USA; 1200 series) consisted of a manual injector, quaternary pump, a thermostatted column compartment, and a variable wavelength detector. Chromatography was performed with a C18 column (Agilent Technologies, Santa Clara, CA, USA; ZORBAX 300SB-C18 5 µm, 4.6 × 250 mm) at 25 °C and 214 nm with a flow rate of 1 mL/min. The sample injection volume was 20 µL. Chromatograms were recorded and analysed with the Agilent software ChemStation (G2175BA; B03.01). Mobile phases were acetonitrile (A) and water (B), each supplemented with 0.15% trifluoroacetic acid (TFA) (v/v). The samples were measured isocratically at 10% solvent A for 30 min.

SARS-CoV-2 3CL^pro [5] = biological target: T1, SARS-CoV-2 3CL^pro; experiment: Inhibitor stability over 24 h (24 h inhibition experiment); format: biochemical; conditions: 0.5 µM 3CLpro with 5 µM peptide, 1/2 h to 24 h at RT, triplicate
Protocol: Briefly, 0.5 µM SARS-CoV-2 3CL^pro was incubated with 5 µM of the peptide and incubated for 1/2 h, 1 h, 2 h, 3 h, 4 h, 5 h, and 24 h at RT. The control was performed with the 3CL^pro in the absence of the peptide and measured together after each time point. Subsequently, the reaction was initiated by the addition of the substrate. All measurements were performed in triplicate, and data are presented as mean ± SD.

SARS-CoV-2 3CL^pro [6] = biological target: T1, SARS-CoV-2 3CL^pro; experiment: Detergent-based (Triton X-100) control assay for aggregation-based promiscuous inhibition; format: biochemical; conditions: 0.001%, 0.01%, 0.1% Triton X-100; four peptide concentrations; triplicate
Protocol: A detergent-based control assay was performed to exclude inhibitors that possibly act as aggregators of the 3CL^pro by adding 0.001%, 0.01%, and 0.1% of Triton X-100 to the reaction. […] All measurements were performed in triplicate, and data are presented as mean ± SD.

pepsin = pepsin (Sus scrofa, UniProt P00791); experiment: L- and D-peptide stability against pepsin hydrolysis (simulated gastric fluid); format: in vitro ADME; conditions: simulated gastric fluid: 3.2 mg/mL pepsin, pH 1.0, 37 °C, 4 and 8 h; RP-HPLC
Sequence of pepsin (P00791 60-385): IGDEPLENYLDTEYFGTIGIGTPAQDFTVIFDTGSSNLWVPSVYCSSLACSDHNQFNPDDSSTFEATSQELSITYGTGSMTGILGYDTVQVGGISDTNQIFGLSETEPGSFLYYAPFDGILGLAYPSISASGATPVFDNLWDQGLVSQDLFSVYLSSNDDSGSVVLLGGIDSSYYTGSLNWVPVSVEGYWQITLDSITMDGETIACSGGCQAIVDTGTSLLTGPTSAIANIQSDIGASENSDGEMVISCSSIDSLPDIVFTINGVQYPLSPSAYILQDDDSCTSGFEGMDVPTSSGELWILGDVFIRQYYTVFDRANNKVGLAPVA
Protocol: as §1, §2

Vero CCL-81 cells = experiment: MTT cell viability assay; format: cell-based, African green monkey; conditions: n = 3
Protocol: Therefore, Vero cells were cultivated in DMEM medium supplemented with 2% fetal calf serum (FCS) and 1% penicillin/streptomycin. A total of 2000 cells per well in a volume of 100 µL were seeded on flat-bottomed 96-well plates (VWR, Radnor, USA) and incubated in a 95% humidified atmosphere with 5% CO2 at 37 °C for 24 h. Subsequently, the cells were treated with 0.2, 1, 5, 10, 25, 50, and 98 µM of each molecule at 37 °C with 5% CO2 for 24 h.
According to the manufacturer’s instructions, cell viability was measured using the Cell Proliferation Kit I (Roche, Basel, Switzerland) in a 3-fold determination. The absorbance of the formazan product was determined by measuring the absorption at 570 nm and subtracted by the absorbance at 690 nm in a microplate reader (BMG Labtech, Ortenberg, Germany). The results were normalised to the mean value of cells treated with medium only. As a […] control for cytotoxicity, 0.1% Triton X-100 diluted in the medium was used. Cell viability was calculated according to Equation (2):(T/C) × 100%(2) where T and C represented the optical density of the treated well and control groups, respectively.

[7] = test system: SARS-CoV-2 B1.1 isolate (NRW-42) in Vero cells; format: cell-based

Molecule	IC50 (SARS-CoV-2 3CL^pro [1]) [µM]	Time for translocation into cells [2] [min]	Concentration giving 100% protease inhibition (SARS-CoV-2 3CL^pro [1]; dose-dependent study) [µM]	Inhibition Type (SARS-CoV-2 3CL^pro [3])	remaining at 8 h [4] [%]	Inhibition of SARS-CoV-2 3CLpro over 24 h (stability of inhibitor) (SARS-CoV-2 3CL^pro [5])	Aggregation-based inhibition (inhibition diminished by detergent) (SARS-CoV-2 3CL^pro [6])	Stability against pepsin hydrolysis (in words) (pepsin)	Cytotoxic effect at the calculated IC50 concentrations (Vero CCL-81 cells)	Viral RNA in cell culture supernatant [7]
COC(=O)[C@H](CCCCN)NC(=O)[C@H](CCCCN)NC(=O)[C@H](CO)NC(=O)[C@H](CO)NC(=O)[C@H](CCCCN)NC(=O)[C@H](Cc1c[nH]c2ccccc12)NC(=O)[C@H](CCCNC(=N)N)NC(=O)[C@H](Cc1c[nH]c2ccccc12)NC(=O)[C@H](CCCNC(=N)N)NC(=O)[C@H](CS)NC(=O)[C@H](CC(=O)O)NC(=O)[C@H](CCSC)NC(=O)[C@H](CCCCN)NC(C)=O [L-CDP3] (Ac-KMDCRWRWKSSKK-OMe)	8.5 ± 1									
YKQCHKKGGHCFPKEKICLPPSSDFGKMDCRWRWKCCKKGSG (disulfide 4-36, 11-30, 18-37) [Crotamine]	40 ± 3.1	≤ 5								
COC(=O)[C@H](CCCCN)NC(=O)[C@H](CCCCN)NC(=O)[C@H](CS)NC(=O)[C@H](CS)NC(=O)[C@H](CCCCN)NC(=O)[C@H](Cc1c[nH]c2ccccc12)NC(=O)[C@H](CCCNC(=N)N)NC(=O)[C@H](Cc1c[nH]c2ccccc12)NC(=O)[C@H](CCCNC(=N)N)NC(=O)[C@H](CS)NC(=O)[C@H](CC(=O)O)NC(=O)[C@H](CCSC)NC(=O)[C@H](CCCCN)NC(C)=O [L-CDP1] (Ac-KMDCRWRWKCCKK-OMe)			30	Competitive	~50	constant inhibition	not observed			
COC(=O)[C@@H](CCCCN)NC(=O)[C@@H](CCCCN)NC(=O)[C@@H](CS)NC(=O)[C@@H](CS)NC(=O)[C@@H](CCCCN)NC(=O)[C@@H](Cc1c[nH]c2ccccc12)NC(=O)[C@@H](CCCNC(=N)N)NC(=O)[C@@H](Cc1c[nH]c2ccccc12)NC(=O)[C@@H](CCCNC(=N)N)NC(=O)[C@@H](CS)NC(=O)[C@@H](CC(=O)O)NC(=O)[C@@H](CCSC)NC(=O)[C@@H](CCCCN)NC(C)=O [D-CDP1] (Ac-[dK][dM][dD][dC][dR][dW][dR][dW][dK][dC][dC][dK][dK]-OMe)				Competitive		constant inhibition	not observed	stable against pepsin hydrolysis	no cytotoxic effect	significant decrease in viral RNA
